Source: ChEMBL document CHEMBL1201862, “PubChem BioAssay data set” (2004)
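Values below derive from 48-hour exposures of cells grown in 96-well plates, with endpoints linearly interpolated between the two concentrations bracketing the appropriate inhibition level. At the GI50, growth is halved.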 Activity calls are given as the source filed them. Rule as the data show it: active = GI50 up to about 1.1 µM and inactive = higher.

Columns and labels:
Assay in all cases: NCI tumour cell line growth inhibition, 48 h
[1] = test system: A498
[2] = test system: BT-549
[3] = test system: CAKI-1
[4] = test system: CCRF-CEM
[5] = test system: COLO 205
[6] = test system: DU-145
[7] = test system: HCC 2998
[8] = test system: HCT-116
[9] = test system: HCT-15
[10] = test system: HL-60
[11] = test system: HOP-62
[12] = test system: HOP-92
[13] = test system: HT-29
[14] = test system: Hs-578T
[15] = test system: IGROV-1
[16] = test system: K562
[17] = test system: KM12
[18] = test system: M14
[19] = test system: MCF7
[20] = test system: MDA-MB-231
[21] = test system: MDA-MB-435
[22] = test system: MDA-N
[23] = test system: MOLT-4
[24] = test system: Malme-3M
[25] = test system: NCI-H226
[26] = test system: NCI-H23
[27] = test system: NCI-H460
[28] = test system: NCI-H522
[29] = test system: NCI/ADR-RES
[30] = test system: OVCAR-3
[31] = test system: OVCAR-5
[32] = test system: OVCAR-8
[33] = test system: PC-3
[34] = test system: RPMI-8226
[35] = test system: RXF 393
[36] = test system: SF-295
[37] = test system: SK-MEL-28
[38] = test system: SK-MEL-2
[39] = test system: SK-MEL-5
[40] = test system: SK-OV-3
[41] = test system: SN12C
[42] = test system: SNB-19
[43] = test system: SNB-75
[44] = test system: SR
[45] = test system: T47D
[46] = test system: U-251
[47] = test system: UACC-62
[48] = test system: UO-31
[49] = test system: 786-0
[50] = test system: A549
[51] = test system: ACHN
[52] = test system: EKVX
[53] = test system: LOX IMVI
[54] = test system: OVCAR-4
[55] = test system: SF-268
[56] = test system: SF-539
[57] = test system: TK-10
[58] = test system: UACC-257
[59] = test system: SW-620

## O=C1CCCC/C1=C1/SC(=N/c2ccccc2)/C(=N\c2ccccc2)N1c1ccccc1
[1]
  GI50: > 100 µM (inactive)
[2]
  GI50: > 100 µM (inactive)
[3]
  GI50: > 100 µM (inactive)
[4]
  GI50: > 100 µM (inactive)
[5]
  GI50: > 100 µM (inactive)
[6]
  GI50: 56.8 µM (inactive)
[7]
  GI50: > 100 µM (inactive)
[8]
  GI50: > 100 µM (inactive)
[9]
  GI50: > 100 µM
[10]
  GI50: > 100 µM (inactive)
[11]
  GI50: 36.1 µM (inactive)
[12]
  GI50: > 100 µM (inactive)
[13]
  GI50: > 100 µM (inactive)
[14]
  GI50: 78.3 µM (inactive)
[15]
  GI50: > 100 µM (inactive)
[16]
  GI50: > 100 µM (inactive)
[17]
  GI50: > 100 µM (inactive)
[18]
  GI50: > 100 µM (inactive)
[19]
  GI50: 68.7 µM (inactive)
[20]
  GI50: > 100 µM (inactive)
[21]
  GI50: > 10 µM (inactive)
[22]
  GI50: > 100 µM (inactive)
[23]
  GI50: 34.2 µM (inactive)
[24]
  GI50: > 100 µM (inactive)
[25]
  GI50: 23.4 µM (inactive)
[26]
  GI50: > 100 µM (inactive)
[27]
  GI50: > 100 µM (inactive)
[28]
  GI50: > 100 µM (inactive)
[29]
  GI50: > 100 µM (inactive)
[30]
  GI50: 40.4 µM (inactive)
[31]
  GI50: > 100 µM (inactive)
[32]
  GI50: > 100 µM (inactive)
[33]
  GI50: > 10 µM (inactive)
[34]
  GI50: > 100 µM (inactive)
[35]
  GI50: 0.0378 µM (active)
[36]
  GI50: 86.3 µM (inactive)
[37]
  GI50: > 100 µM (inactive)
[38]
  GI50: > 100 µM (inactive)
[39]
  GI50: > 10 µM (inactive)
[40]
  GI50: > 100 µM (inactive)
[41]
  GI50: > 100 µM (inactive)
[42]
  GI50: > 100 µM (inactive)
[43]
  GI50: 69.5 µM (inactive)
[44]
  GI50: > 100 µM (inactive)
[45]
  GI50: > 100 µM (inactive)
[46]
  GI50: > 100 µM (inactive)
[47]
  GI50: 38.1 µM (inactive)
[48]
  GI50: 91.4 µM (inactive)

## C/C(=N\NC(=S)NCCCCNC(=S)N/N=C(\C)c1ccccn1)c1ccccc1
[49]
  GI50: 6.18 µM (inactive)
[1]
  GI50: 3.05 µM (inactive)
[50]
  GI50: 1.66 µM (inactive)
[51]
  GI50: 0.601 µM (active)
[2]
  GI50: 0.897 µM (active)
[4]
  GI50: 0.391 µM (active)
[5]
  GI50: 0.832 µM (active)
[6]
  GI50: 0.979 µM (active)
[52]
  GI50: 2.23 µM (inactive)
[7]
  GI50: 1.66 µM (inactive)
[8]
  GI50: 0.331 µM (active)
[9]
  GI50: 0.484 µM
[11]
  GI50: 0.745 µM (active)
[12]
  GI50: 1.55 µM (inactive)
[13]
  GI50: 0.531 µM (active)
[14]
  GI50: > 23.6 µM (inactive)
[15]
  GI50: 0.736 µM (active)
[16]
  GI50: 2.25 µM (inactive)
[17]
  GI50: 1.77 µM (inactive)
[53]
  GI50: 0.845 µM (active)
[19]
  GI50: 0.416 µM (active)
[20]
  GI50: 5.09 µM (inactive)
[21]
  GI50: > 100 µM (inactive)
[22]
  GI50: 2.25 µM (inactive)
[23]
  GI50: 0.556 µM (active)
[24]
  GI50: 0.845 µM (active)
[26]
  GI50: 2.73 µM (inactive)
[27]
  GI50: 0.481 µM (active)
[28]
  GI50: 1.15 µM (inactive)
[29]
  GI50: 0.914 µM (active)
[30]
  GI50: 0.424 µM (active)
[54]
  GI50: 1.43 µM (inactive)
[31]
  GI50: 1.98 µM (inactive)
[32]
  GI50: 0.337 µM (active)
[33]
  GI50: 3.02 µM (inactive)
[34]
  GI50: 1.35 µM (inactive)
[35]
  GI50: 1.02 µM (active)
[55]
  GI50: 0.394 µM (active)
[36]
  GI50: 0.982 µM (active)
[56]
  GI50: 1.11 µM (active)
[37]
  GI50: 2.05 µM (inactive)
[38]
  GI50: 6.71 µM (inactive)
[39]
  GI50: 0.714 µM (active)
[40]
  GI50: 2.27 µM (inactive)
[41]
  GI50: 0.859 µM (active)
[42]
  GI50: > 24.8 µM (inactive)
[43]
  GI50: 0.993 µM (active)
[44]
  GI50: 0.317 µM (active)
[45]
  GI50: 0.351 µM (active)
[57]
  GI50: 0.839 µM (active)
[46]
  GI50: 0.962 µM (active)
[58]
  GI50: 1.78 µM (inactive)
[47]
  GI50: 1.12 µM (active)
[48]
  GI50: 0.635 µM (active)

## O=C(CN1C(=O)c2ccccc2C1=O)C(O)CN1C(=O)c2ccccc2C1=O (stereo not drawn)
[49]
  GI50: 28 µM (inactive)
[1]
  GI50: 87.1 µM (inactive)
[50]
  GI50: > 100 µM (inactive)
[51]
  GI50: 20 µM (inactive)
[2]
  GI50: 48.1 µM (inactive)
[3]
  GI50: > 100 µM (inactive)
[5]
  GI50: > 100 µM (inactive)
[6]
  GI50: 47.2 µM (inactive)
[52]
  GI50: 76.2 µM (inactive)
[7]
  GI50: > 100 µM (inactive)
[8]
  GI50: > 100 µM (inactive)
[9]
  GI50: 92.5 µM
[10]
  GI50: 44.7 µM (inactive)
[11]
  GI50: 17.9 µM (inactive)
[12]
  GI50: 32.4 µM (inactive)
[13]
  GI50: > 100 µM (inactive)
[14]
  GI50: 34.7 µM (inactive)
[15]
  GI50: 43.7 µM (inactive)
[17]
  GI50: 84.1 µM (inactive)
[53]
  GI50: 92.3 µM (inactive)
[18]
  GI50: > 100 µM (inactive)
[19]
  GI50: > 100 µM (inactive)
[20]
  GI50: 22.5 µM (inactive)
[21]
  GI50: 34.1 µM (inactive)
[22]
  GI50: > 100 µM (inactive)
[23]
  GI50: > 100 µM (inactive)
[25]
  GI50: 73.8 µM (inactive)
[26]
  GI50: 26.9 µM (inactive)
[27]
  GI50: > 100 µM (inactive)
[28]
  GI50: > 100 µM (inactive)
[29]
  GI50: > 100 µM (inactive)
[30]
  GI50: > 100 µM (inactive)
[54]
  GI50: 98.4 µM (inactive)
[31]
  GI50: > 100 µM (inactive)
[32]
  GI50: 46.5 µM (inactive)
[33]
  GI50: > 100 µM (inactive)
[34]
  GI50: > 100 µM (inactive)
[35]
  GI50: 34.4 µM (inactive)
[55]
  GI50: 23.5 µM (inactive)
[36]
  GI50: 31.3 µM (inactive)
[56]
  GI50: 33.2 µM (inactive)
[37]
  GI50: > 100 µM (inactive)
[38]
  GI50: > 100 µM (inactive)
[39]
  GI50: > 100 µM (inactive)
[40]
  GI50: 27.9 µM (inactive)
[41]
  GI50: 53.5 µM (inactive)
[42]
  GI50: 50.7 µM (inactive)
[43]
  GI50: 16 µM (inactive)
[44]
  GI50: > 100 µM (inactive)
[59]
  GI50: > 100 µM (inactive)
[45]
  GI50: 93.5 µM (inactive)
[57]
  GI50: 46.1 µM (inactive)
[46]
  GI50: 29.1 µM (inactive)
[58]
  GI50: > 100 µM (inactive)
[47]
  GI50: > 100 µM (inactive)
[48]
  GI50: 73.3 µM (inactive)
